Residues, ends and D or L forms follow the SMILES beside them.
Legend:
[1] = system: taste-test volunteers; test: Blind taste test of sweetening potency of aqueous solutions; assay type: in vivo; details: aqueous solutions at 1 mg/ml and 5 mg/ml, six volunteers
Procedure: The sweetening potency of Compounds 1 and 2 was established by conducting blind taste tests of aqueous solutions of each of Compound 1 and 2 compared to aqueous solutions of each of sucrose and aspartame at concentrations of both 1 mg/ml and 5 mg/ml. […] Furthermore, Compound 1, the ethoid version of aspartame, was reported to be approximately 5 to 10 times sweeter than aspartame by the taste-test volunteers.

[2] = Comparative stability of aspartame and aspartame ethoid in PBS solution (HPLC-MS); assay type: physicochemical; details: for half-life: 65° C., PBS pH 7.5; for Cyclized product (%) / SM (%): AUC at 214 nm; for degradation at the 12 hour time point: FIG. 1, PBS pH 7.5, 65° C.
Procedure: Solutions of Aspartame and Compound 1 were prepared by dissolving 10 mg of the subject dipeptide in 4 ml of PBS, pH=7.5. […] Aliquots (50 μl) were withdrawn at the following times: 0, 24 h, 36 h, 48 h and 60 h, and diluted with 125 μl of methanol/acetonitrile/0.1% TFA.
The samples were analyzed by HPLC-MS, using a Gilson HPLC with dual wavelengths UV detector (214 and 254 nm). The following conditions were employed: column: C18; 4.6×250 mm; 5 μmx 6A; solvent system: H2O-1% TFA/Acetonitrile-1% TFA, 1 ml/min, with a gradient of 10% organic phase to 100% organic phase in 10 minutes, followed by a 10 minute hold at 100% of organic phase. As shown in the reaction schemes above, decomposition proceeds mainly via a cyclization reaction to form the corresponding cyclized product and methanol.
The AUC (at 214 nm) values corresponding to the dipeptide and corresponding cyclized products (aspartame→diketopiperazine and aspartame ethoid→ketooxazine) are summarized in the following Table.
See, e.g., FIG. 1, which provides plots of the logarithm of percent of intact dipeptide remaining over time, in hours, for both aspartame and the methyleneoxy ethoid of aspartame. […] The rate of degradation of the methyleneoxy ethoid of aspartame is time, temperature, and pH dependent.

[3] = reported, background; cited from earlier work
[4] = Solution stability of methyleneoxy ethoid of neotame relative to neotame; assay type: physicochemical; details: FIG. 5B, 60° C., PBS pH 7.5, hydrolysis of methyl ester
Procedure: FIGS. 5A and 5B illustrate the temperature stability of an exemplary ethoid of neotame compared to neotame itself. […] FIG. 5B provides a comparison of the rate of degradation of the methyleneoxy ethoid of neotame versus neotame over time at 60° C. in a solution of phosphate buffered saline at pH 7.5. Specifically, FIG. 5B is a plot of the natural logarithm of the concentration of (neotame/neotame ethoid) over time. The decomposition reaction proceeds via hydrolysis of the methyl ester to the corresponding di-carboxylic acid.
The solution stability of Compound 3 at various temperatures was examined and compared to that of neotame.
The major route leading to loss of neotame is hydrolysis of the methyl ester group as shown above. […] The rates of degradation of neotame and the methyleneoxy ethoid of neotame were examined and compared. […] FIG. 5B is a plot comparing the rate of degradation of neotame to that of the corresponding ethoid.

| SMILES | half-life [2] [h] | Cyclized product (%) ([2]; PBS pH 7.5, 40° C., time 0 h) | SM (%) ([2]; PBS pH 7.5, 40° C., time 0 h) | Cyclized product (%) ([2]; PBS pH 7.5, 40° C., time 24 h) | SM (%) ([2]; PBS pH 7.5, 40° C., time 24 h) | Cyclized product (%) ([2]; PBS pH 7.5, 40° C., time 36 h) | SM (%) ([2]; PBS pH 7.5, 40° C., time 36 h) | Cyclized product (%) ([2]; PBS pH 7.5, 40° C., time 48 h) | SM (%) ([2]; PBS pH 7.5, 40° C., time 48 h) | Cyclized product (%) ([2]; PBS pH 7.5, 40° C., time 60 h) | SM (%) ([2]; PBS pH 7.5, 40° C., time 60 h) | degradation at the 12 hour time point [2] | sweetness compared to sucrose solution [1] | sweetness relative to sugar [3] | other results |
| --- | --- | --- | --- | --- | --- | --- | --- | --- | --- | --- | --- | --- | --- | --- | --- |
| CC(=O)NC(COC(CCCCN)C(=O)O)Cc1ccccc1 (centres unmarked) [Compound 2, N—Ac-Phe-CH2—O-Lys] |  |  |  |  |  |  |  |  |  |  |  |  | significantly sweeter than sugar |  |  |
| O=C1NS(=O)(=O)c2ccccc21 [saccharin] |  |  |  |  |  |  |  |  |  |  |  |  |  | 300-450 times |  |
| COC(=O)C(Cc1ccccc1)OCC(CC(=O)O)NCCC(C)(C)C (centres unmarked) [Compound 3] |  |  |  |  |  |  |  |  |  |  |  |  |  |  | rate of degradation compared to neotame [4]: nearly identical |

The next lines start with results.

| half-life [2] [h] | Cyclized product (%) ([2]; PBS pH 7.5, 40° C., time 0 h) | SM (%) ([2]; PBS pH 7.5, 40° C., time 0 h) | Cyclized product (%) ([2]; PBS pH 7.5, 40° C., time 24 h) | SM (%) ([2]; PBS pH 7.5, 40° C., time 24 h) | Cyclized product (%) ([2]; PBS pH 7.5, 40° C., time 36 h) | SM (%) ([2]; PBS pH 7.5, 40° C., time 36 h) | Cyclized product (%) ([2]; PBS pH 7.5, 40° C., time 48 h) | SM (%) ([2]; PBS pH 7.5, 40° C., time 48 h) | Cyclized product (%) ([2]; PBS pH 7.5, 40° C., time 60 h) | SM (%) ([2]; PBS pH 7.5, 40° C., time 60 h) | degradation at the 12 hour time point [2] | SMILES | sweetness compared to sucrose solution [1] | sweetness relative to sugar [3] | other results |
| --- | --- | --- | --- | --- | --- | --- | --- | --- | --- | --- | --- | --- | --- | --- | --- |
| 305 | 0 | 100 | 0 | 100 | 0 | 100 | 0 | 100 | 0 | 100 | negligible | COC(=O)C(Cc1ccccc1)OCC(N)CC(=O)O (centres unmarked) [Compound 1, asp-CH2—O-phe] | significantly sweeter than sugar |  | sweetness relative to aspartame [1]: several-fold sweeter; phenylalanine formation upon degradation [2]: does not form phenylalanine; diketopiperazine formation upon degradation ([2]; Example 4): no diketopiperazine (dkkp) formation; degradation in solution at 40° C. ([2]; PBS pH 7.5, 40° C., up to 60 h): essentially no degradation was observed; improvement of stability over aspartame ([2]; half lives at 65° C., ethoid versus aspartame): over a hundred-fold |
| 2.5 | 0 | 100 | 95 | 5 | 100 | 0 | 100 | 0 | 100 | 0 | essentially complete | COC(=O)[C@H](Cc1ccccc1)NC(=O)[C@@H](N)CC(=O)O [Aspartame, L-aspartyl-L-phenylalanine methyl ester, reference compound] (H-Asp-Phe-OMe) |  | approximately 150 times | sweetness relative to an equivalent amount of sugar [3]: 150 fold |
